Assay results: ChEMBL document CHEMBL1201862, “PubChem BioAssay data set” (2004)
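48-hour exposure; five concentrations; linearly interpolated endpoints. GI50: concentration for 50% inhibition of growth.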 Active and inactive are the calls of the source. No stated cut-off is given here; in the data, active = GI50 up to about 1.1 µM and inactive = higher.

Assays:
Test in all cases: NCI tumour cell line growth inhibition, 48 h
786-0 = tested on: 786-0
A498 = tested on: A498
A549 = tested on: A549
ACHN = tested on: ACHN
CAKI-1 = tested on: CAKI-1
CCRF-CEM = tested on: CCRF-CEM
COLO 205 = tested on: COLO 205
DU-145 = tested on: DU-145
EKVX = tested on: EKVX
HCC 2998 = tested on: HCC 2998
HCT-116 = tested on: HCT-116
HCT-15 = tested on: HCT-15
HOP-62 = tested on: HOP-62
HT-29 = tested on: HT-29
Hs-578T = tested on: Hs-578T
IGROV-1 = tested on: IGROV-1
K562 = tested on: K562
KM12 = tested on: KM12
LOX IMVI = tested on: LOX IMVI
M14 = tested on: M14
MCF7 = tested on: MCF7
MDA-MB-231 = tested on: MDA-MB-231
MDA-MB-435 = tested on: MDA-MB-435
MDA-N = tested on: MDA-N
MOLT-4 = tested on: MOLT-4
Malme-3M = tested on: Malme-3M
NCI-H226 = tested on: NCI-H226
NCI-H460 = tested on: NCI-H460
NCI-H522 = tested on: NCI-H522
NCI/ADR-RES = tested on: NCI/ADR-RES
OVCAR-3 = tested on: OVCAR-3
OVCAR-4 = tested on: OVCAR-4
OVCAR-5 = tested on: OVCAR-5
OVCAR-8 = tested on: OVCAR-8
PC-3 = tested on: PC-3
RXF 393 = tested on: RXF 393
SF-268 = tested on: SF-268
SF-295 = tested on: SF-295
SF-539 = tested on: SF-539
SK-MEL-28 = tested on: SK-MEL-28
SK-MEL-2 = tested on: SK-MEL-2
SK-MEL-5 = tested on: SK-MEL-5
SK-OV-3 = tested on: SK-OV-3
SN12C = tested on: SN12C
SNB-19 = tested on: SNB-19
SNB-75 = tested on: SNB-75
SR = tested on: SR
SW-620 = tested on: SW-620
T47D = tested on: T47D
U-251 = tested on: U-251
HL-60 = tested on: HL-60
HOP-92 = tested on: HOP-92
NCI-H23 = tested on: NCI-H23
RPMI-8226 = tested on: RPMI-8226
TK-10 = tested on: TK-10
UO-31 = tested on: UO-31
UACC-257 = tested on: UACC-257

CSc1cc(Cl)c(C)cc1S(=O)(=O)NC(=O)NNc1cccc(C(F)(F)F)n1
GI50 (786-0): > 100 µM (inactive)
GI50 (A498): > 100 µM (inactive)
GI50 (A549): > 100 µM (inactive)
GI50 (ACHN): > 100 µM (inactive)
GI50 (CAKI-1): > 100 µM (inactive)
GI50 (CCRF-CEM): > 100 µM (inactive)
GI50 (COLO 205): > 100 µM (inactive)
GI50 (DU-145): > 100 µM (inactive)
GI50 (EKVX): > 100 µM (inactive)
GI50 (HCC 2998): > 100 µM (inactive)
GI50 (HCT-116): > 100 µM (inactive)
GI50 (HCT-15): > 100 µM
GI50 (HOP-62): > 100 µM (inactive)
GI50 (HT-29): > 100 µM (inactive)
GI50 (Hs-578T): > 100 µM (inactive)
GI50 (IGROV-1): > 100 µM (inactive)
GI50 (K562): > 100 µM (inactive)
GI50 (KM12): > 100 µM (inactive)
GI50 (LOX IMVI): > 100 µM (inactive)
GI50 (M14): > 100 µM (inactive)
GI50 (MCF7): > 100 µM (inactive)
GI50 (MDA-MB-231): > 100 µM (inactive)
GI50 (MDA-MB-435): > 100 µM (inactive)
GI50 (MDA-N): > 100 µM (inactive)
GI50 (MOLT-4): 20.9 µM (inactive)
GI50 (Malme-3M): > 100 µM (inactive)
GI50 (NCI-H226): > 100 µM (inactive)
GI50 (NCI-H460): > 100 µM (inactive)
GI50 (NCI-H522): > 100 µM (inactive)
GI50 (NCI/ADR-RES): > 100 µM (inactive)
GI50 (OVCAR-3): > 100 µM (inactive)
GI50 (OVCAR-4): > 100 µM (inactive)
GI50 (OVCAR-5): > 100 µM (inactive)
GI50 (OVCAR-8): > 100 µM (inactive)
GI50 (PC-3): > 100 µM (inactive)
GI50 (RXF 393): > 100 µM (inactive)
GI50 (SF-268): > 100 µM (inactive)
GI50 (SF-295): > 100 µM (inactive)
GI50 (SF-539): 51.8 µM (inactive)
GI50 (SK-MEL-28): > 100 µM (inactive)
GI50 (SK-MEL-2): > 100 µM (inactive)
GI50 (SK-MEL-5): > 100 µM (inactive)
GI50 (SK-OV-3): > 100 µM (inactive)
GI50 (SN12C): > 100 µM (inactive)
GI50 (SNB-19): > 100 µM (inactive)
GI50 (SNB-75): 91.8 µM (inactive)
GI50 (SR): > 100 µM (inactive)
GI50 (SW-620): > 100 µM (inactive)
GI50 (T47D): > 100 µM (inactive)
GI50 (U-251): > 100 µM (inactive)

O=S(=O)(N=[Se](=O)(c1ccccc1)c1ccccc1)c1ccccc1
GI50 (786-0): > 100 µM (inactive)
GI50 (A498): > 100 µM (inactive)
GI50 (ACHN): > 100 µM (inactive)
GI50 (CAKI-1): > 100 µM (inactive)
GI50 (CCRF-CEM): > 100 µM (inactive)
GI50 (COLO 205): > 100 µM (inactive)
GI50 (EKVX): > 100 µM (inactive)
GI50 (HCC 2998): > 100 µM (inactive)
GI50 (HCT-116): > 100 µM (inactive)
GI50 (HCT-15): > 100 µM
GI50 (HL-60): 25.1 µM (inactive)
GI50 (HOP-62): > 100 µM (inactive)
GI50 (HOP-92): > 100 µM (inactive)
GI50 (HT-29): > 100 µM (inactive)
GI50 (Hs-578T): > 100 µM (inactive)
GI50 (IGROV-1): 28 µM (inactive)
GI50 (K562): > 100 µM (inactive)
GI50 (KM12): > 100 µM (inactive)
GI50 (LOX IMVI): > 100 µM (inactive)
GI50 (M14): > 100 µM (inactive)
GI50 (MCF7): 88.3 µM (inactive)
GI50 (MDA-MB-231): > 100 µM (inactive)
GI50 (MDA-MB-435): > 100 µM (inactive)
GI50 (MDA-N): > 100 µM (inactive)
GI50 (MOLT-4): > 100 µM (inactive)
GI50 (NCI-H226): > 100 µM (inactive)
GI50 (NCI-H23): > 100 µM (inactive)
GI50 (NCI-H460): > 100 µM (inactive)
GI50 (NCI-H522): > 100 µM (inactive)
GI50 (NCI/ADR-RES): > 100 µM (inactive)
GI50 (OVCAR-3): > 100 µM (inactive)
GI50 (OVCAR-4): > 100 µM (inactive)
GI50 (OVCAR-5): > 100 µM (inactive)
GI50 (OVCAR-8): > 100 µM (inactive)
GI50 (PC-3): > 100 µM (inactive)
GI50 (RPMI-8226): > 100 µM (inactive)
GI50 (SF-268): > 100 µM (inactive)
GI50 (SF-295): > 100 µM (inactive)
GI50 (SF-539): > 100 µM (inactive)
GI50 (SK-MEL-28): > 100 µM (inactive)
GI50 (SK-MEL-2): 48.3 µM (inactive)
GI50 (SK-MEL-5): > 100 µM (inactive)
GI50 (SK-OV-3): > 100 µM (inactive)
GI50 (SN12C): > 100 µM (inactive)
GI50 (SNB-19): 60 µM (inactive)
GI50 (SNB-75): > 100 µM (inactive)
GI50 (SR): > 100 µM (inactive)
GI50 (SW-620): > 100 µM (inactive)
GI50 (T47D): > 100 µM (inactive)
GI50 (TK-10): > 100 µM (inactive)
GI50 (U-251): > 100 µM (inactive)
GI50 (UO-31): 58.1 µM (inactive)

CCCCCCCCCCCCCCCCNC(=O)/C(O)=C/C(=O)c1ccc(C)cc1
GI50 (786-0): > 10 µM (inactive)
GI50 (A498): > 10 µM (inactive)
GI50 (ACHN): > 10 µM (inactive)
GI50 (CAKI-1): > 10 µM (inactive)
GI50 (CCRF-CEM): > 10 µM (inactive)
GI50 (COLO 205): > 10 µM (inactive)
GI50 (DU-145): > 10 µM (inactive)
GI50 (EKVX): > 10 µM (inactive)
GI50 (HCC 2998): > 10 µM (inactive)
GI50 (HCT-15): > 10 µM
GI50 (HL-60): 8.05 µM (inactive)
GI50 (HOP-62): > 10 µM (inactive)
GI50 (HT-29): > 10 µM (inactive)
GI50 (Hs-578T): > 10 µM (inactive)
GI50 (IGROV-1): > 10 µM (inactive)
GI50 (K562): > 10 µM (inactive)
GI50 (KM12): > 10 µM (inactive)
GI50 (LOX IMVI): > 10 µM (inactive)
GI50 (M14): > 10 µM (inactive)
GI50 (MCF7): > 10 µM (inactive)
GI50 (MDA-MB-231): > 10 µM (inactive)
GI50 (MDA-MB-435): > 10 µM (inactive)
GI50 (MDA-N): > 10 µM (inactive)
GI50 (MOLT-4): > 10 µM (inactive)
GI50 (Malme-3M): > 10 µM (inactive)
GI50 (NCI-H226): > 10 µM (inactive)
GI50 (NCI-H23): > 10 µM (inactive)
GI50 (NCI-H460): > 10 µM (inactive)
GI50 (NCI-H522): > 10 µM (inactive)
GI50 (NCI/ADR-RES): > 10 µM (inactive)
GI50 (OVCAR-3): > 10 µM (inactive)
GI50 (OVCAR-4): > 10 µM (inactive)
GI50 (OVCAR-5): > 10 µM (inactive)
GI50 (OVCAR-8): > 10 µM (inactive)
GI50 (PC-3): 3.32 µM (inactive)
GI50 (RPMI-8226): > 10 µM (inactive)
GI50 (RXF 393): > 10 µM (inactive)
GI50 (SF-268): > 10 µM (inactive)
GI50 (SF-295): > 10 µM (inactive)
GI50 (SF-539): > 10 µM (inactive)
GI50 (SK-MEL-28): > 10 µM (inactive)
GI50 (SK-MEL-2): > 10 µM (inactive)
GI50 (SK-MEL-5): > 10 µM (inactive)
GI50 (SK-OV-3): > 10 µM (inactive)
GI50 (SN12C): > 10 µM (inactive)
GI50 (SNB-75): > 10 µM (inactive)
GI50 (SR): > 10 µM (inactive)
GI50 (SW-620): > 10 µM (inactive)
GI50 (T47D): > 10 µM (inactive)
GI50 (TK-10): > 10 µM (inactive)
GI50 (U-251): > 10 µM (inactive)
GI50 (UACC-257): > 10 µM (inactive)
GI50 (UO-31): > 10 µM (inactive)

COc1cc(C(=O)N2CCN(C(=O)c3cc(OC)c(OC)c(OC)c3)C2=S)cc(OC)c1OC
GI50 (RPMI-8226): 3.66 µM (inactive)
GI50 (UO-31): 0.234 µM (active)
